IC50 data for two compounds are collected here from patent US7919513B2, “Inhibitors of p38” (Vertex Pharmaceuticals Incorporated, priority 2000, dated 2011).

The structures appear in SMILES notation.

By IC50 is commonly meant the concentration at which inhibition is half-maximal. Read a low IC50 as greater potency.

In test [1] the test system is IL-1 production in LPS-stimulated PBMCs. The test can be described thus: Inhibition of IL-1 production in LPS-stimulated PBMCs ("cell"). It counts as cell-based. The conditions noted are these: Homo sapiens, PBMC, 4 ng/ml LPS, overnight, ELISA IL-1β. As to the method: (§1) C. Inhibition of IL-1, TNF, IL-6 and IL-8 Production in LPS-Stimulated PBMCs
(§2) Inhibitors were serially diluted in DMSO from a 20 mM stock. At least 6 serial dilutions were prepared. Then 4× inhibitor stocks were prepared by adding 4 μl of an inhibitor dilution to 1 ml of RPMI1640 medium/10% fetal bovine serum. The 4× inhibitor stocks contained inhibitor at concentrations of 80 μM, 32 μM, 12.8 μM, 5.12 μM, 2.048 μM, 0.819 μM, 0.328 μM, 0.131 μM, 0.052 μM, 0.021 μM etc. The 4× inhibitor stocks were pre-warmed at 37° C. until use.
(§3) Fresh human blood buffy cells were separated from other cells in a Vacutainer CPT from Becton & Dickinson (containing 4 ml blood and enough DPBS without Mg^2+/Ca^2+ to fill the tube) by centrifugation at 1500×g for 15 min. […] The total cell number was determined using a Neubauer Cell Chamber and the cells were adjusted to a concentration of 4.8×10^6 cells/ml in cell culture medium (RPMI1640 supplemented with 10% fetal bovine serum). […]
(§4) The next day the cells were mixed on a shaker for 3-5 minutes before centrifugation at 500×g for 5 minutes. Cell culture supernatants were harvested and analyzed by ELISA for levels of IL-1β (R & D Systems, Quantikine kits, #DBL50), TNF-α (BioSource, #KHC3012), IL-6 (Endogen, #EH2-IL6) and IL-8 (Endogen, #EH2-IL8) according to the instructions of the manufacturer. […]
In general terms: ELISA stands for enzyme-linked immunosorbent assay.

The next test concerns the target activated p38 (Homo sapiens, UniProt Q16539). Kind of test: Kinase assay: inhibition of phosphorylation of EGF receptor peptide. It counts as biochemical. The conditions noted are these: activated p38 5 nM, EGF receptor peptide 200 μM, ATP 100 μM, 30° C, HPLC. As for the experimental part: A. Inhibition of Phosphorylation of EGF Receptor Peptide
This assay was carried out in the presence of 10 mM MgCl2, 25 mM β-glycerophosphate, 10% glycerol and 100 mM HEPES buffer at pH 7.6. For a typical IC50 determination, a stock solution was prepared containing all of the above components and activated p38 (5 nM). The stock solution was aliquotted into vials. A fixed volume of DMSO or inhibitor in DMSO (final concentration of DMSO in reaction was 5%) was introduced to each vial, mixed and incubated for 15 minutes at room temperature. EGF receptor peptide, […] (SEQ ID NO: 3), a phosphoryl acceptor in p38-catalyzed kinase reaction (1), was added to each vial to a final concentration of 200 μM. The kinase reaction was initiated with ATP (100 μM) and the vials were incubated at 30° C. After 30 minutes, the reactions were quenched with equal volume of 10% trifluoroacetic acid (TFA).
The phosphorylated peptide was quantified by HPLC analysis. Separation of phosphorylated peptide from the unphosphorylated peptide was achieved on a reverse phase column (Deltapak, 5 μm, C18 100D, Part no. 011795) with a binary gradient of water and acteonitrile, each containing 0.1% TFA. IC50 (concentration of inhibitor yielding 50% inhibition) was determined by plotting the percent (%) activity remaining against inhibitor concentration.

Test [2] concerns TNF production in LPS-stimulated PBMCs. The test can be described thus: Inhibition of TNF production in LPS-stimulated PBMCs ("cell"). The class given is cell-based. The conditions noted are these: Homo sapiens, PBMC, 4 ng/ml LPS, overnight, ELISA TNF-α. As to the method:
as §1, §2, §3, §4

For test [3], the system named is TNF production in whole blood. Kind of test: Inhibition of TNF production in LPS-stimulated whole blood ("WB"). It counts as cell-based. The conditions noted are these: Homo sapiens, 4 ng/ml LPS, overnight, ELISA TNF-α. As to the method: as §1, §2
(§5) Alternatively, whole blood containing an anti-coagulant was used directly in the assay.
(§6) 100 μl of cell suspension or whole blood were placed in each well of a 96-well cell culture plate. Then 50 μl of the 4× inhibitor stock was added to the cells. Finally, 50 μl of a lipopolysaccharide (LPS) working stock solution (16 ng/ml in cell culture medium) was added to give a final concentration of 4 ng/ml LPS in the assay. […]
as §4

Test [4] concerns IL-1 production in whole blood. The test can be described thus: Inhibition of IL-1 production in LPS-stimulated whole blood ("WB"). It counts as cell-based. The note with it: Homo sapiens, 4 ng/ml LPS, overnight, ELISA IL-1β. As to the method:
as §1, §2, §5, §6, §4

For test [5], the system named is IL-6 production in whole blood. The test can be described thus: Inhibition of IL-6 production in LPS-stimulated whole blood ("WB"). The class given is cell-based. The conditions noted are these: Homo sapiens, 4 ng/ml LPS, overnight, ELISA IL-6. As to the method:
as §1, §2, §5, §6, §4

Sequence of activated p38 (Q16539 whole entry): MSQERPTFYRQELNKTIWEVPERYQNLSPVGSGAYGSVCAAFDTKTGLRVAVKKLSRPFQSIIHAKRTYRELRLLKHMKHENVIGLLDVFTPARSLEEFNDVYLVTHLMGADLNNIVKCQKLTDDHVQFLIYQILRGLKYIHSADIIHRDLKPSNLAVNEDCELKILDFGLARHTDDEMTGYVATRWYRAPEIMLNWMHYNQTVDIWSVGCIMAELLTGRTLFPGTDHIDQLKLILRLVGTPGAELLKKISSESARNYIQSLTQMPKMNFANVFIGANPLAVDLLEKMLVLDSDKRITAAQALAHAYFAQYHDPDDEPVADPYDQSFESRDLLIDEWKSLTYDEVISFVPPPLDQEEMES

On to `CN(C)/C=N/C(=O)OCc1ccc(N(C(N)=O)c2c(F)cccc2F)nc1-c1ccc(F)cc1F` [Compound 9], for which the 50% inhibitory concentration (IC50) in test [1] came out at 0.05 µM; at activated p38 it was 1 µM; in test [2], 0.05 µM; in test [3] it was 20 µM; in test [4], 12.2 µM; in test [5], 11 µM.

In the case of `CN(C)/C=N/C(=O)OCc1ccc(N(C(=O)/N=C/N(C)C)c2c(F)cccc2F)nc1-c1ccc(F)cc1F` [Compound 10], the IC50 on activated p38 was found to be 5 µM; in test [3], 4.3 µM; in test [4], 2.2 µM; in test [5], 0.8 µM.
